Assay results published in US8653096B2, “Chemokine receptor antagonists and methods of use thereof” (Millennium Pharmaceuticals, Inc., priority 2001, dated 2014).

Molecular target: T1, RANTES/MIP-1α chemokine receptor (CCR1) in THP-1 cell membranes (Homo sapiens, UniProt P32246)
T1 construct: Membranes were prepared from THP-1 cells (ATCC #TIB202); host or cells: THP-1 cells (membrane preparation)
T1 sequence (P32246 1-355): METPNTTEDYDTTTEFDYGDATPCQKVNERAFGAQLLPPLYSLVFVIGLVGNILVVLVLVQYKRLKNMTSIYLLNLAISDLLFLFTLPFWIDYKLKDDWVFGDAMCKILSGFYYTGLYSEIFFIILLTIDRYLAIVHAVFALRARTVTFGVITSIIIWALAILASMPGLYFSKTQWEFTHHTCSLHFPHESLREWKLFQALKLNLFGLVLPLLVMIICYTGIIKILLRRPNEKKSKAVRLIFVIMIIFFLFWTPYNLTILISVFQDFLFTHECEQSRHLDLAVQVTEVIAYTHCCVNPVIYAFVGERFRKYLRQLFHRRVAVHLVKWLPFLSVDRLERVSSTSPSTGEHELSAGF
Experiment: Receptor binding assay: 125I-RANTES or 125I-MIP-1α binding to THP-1 cell membranes
Settings: not given
Experimental: Membranes were prepared from THP-1 cells (ATCC #TIB202). Cells were harvested by centrifugation, washed twice with PBS (phosphate-buffered saline), and the cell pellets were frozen at −70 to −85° C. The frozen pellet was thawed in ice-cold lysis buffer consisting of 5 mM HEPES (N-2-hydroxyethylpiperazine-N′-2-ethane-sulfonic acid) pH 7.5, 2 mM EDTA (ethylenediaminetetraacetic acid), 5 μg/ml each aprotinin, leupeptin, and chymostatin (protease inhibitors), and 100 μg/ml PMSF (phenyl methane sulfonyl fluoride—also a protease inhibitor), at a concentration of 1 to 5×10^7 cells/ml. This procedure results in cell lysis. The suspension was mixed well to resuspend all of the frozen cell pellet. Nuclei and cell debris were removed by centrifugation of 400×g for 10 minutes at 4° C. The supernatant was transferred to a fresh tube and the membrane fragments were collected by centrifugation at 25,000×g for 30 minutes at 4° C. The supernatant was aspirated and the pellet was resuspended in freezing buffer consisting of 10 mM HEPES pH 7.5, 300 mM sucrose, 1 μg/ml each aprotinin, leupeptin, and chymostatin, and 10 μg/ml PMSF (approximately 0.1 ml per each 10^8 cells). All clumps were resolved using a minihomogenizer, and the total protein concentration was determined using a protein assay kit (Bio-Rad, Hercules, Calif., cat #500-0002). The membrane solution was then aliquoted and frozen at −70 to −85° C. until needed.
Binding Assays utilized the membranes described above. […] The binding reactions were performed in 60 to 100 μl of a binding buffer consisting of 10 mM HEPES pH 7.2, 1 mM CaCl2, 5 mM MgCl2, and 0.5% BSA (bovine serum albumin), for 60 min at room temperature. The binding reactions were terminated by harvesting the membranes by rapid filtration through glass fiber filters (GF/B or GF/C, Packard) which were presoaked in 0.3% polyethyleneimine. The filters were rinsed with approximately 600 μl of binding buffer containing 0.5 M NaCl, dried, and the amount of bound radioactivity was determined by scintillation counting in a Topcount beta-plate counter.
Specific binding is defined as the total binding minus the non-specific binding; non-specific binding is the amount of cpm still detected in the presence of excess unlabeled Rantes or MIP-1α.

| Molecule | IC50 |
| --- | --- |
| COC(=O)C1(Nc2ccc(Cl)cc2)CCN(CCC=C2c3cc(C(C)(C)O)ccc3OCc3ncccc32)CC1 [Example 465, 4-(4-Chloro-phenylamino)-1-{3-[7-(1-hydroxy-1-methyl-ethyl)-11H-10-oxa-1-aza-dibenzo[a,d]cyclohepten-5-ylidene]-propyl}-piperidine-4-carboxylic acid methyl ester] | < 1 µM |

Same assay, conditions: enantiomers resolved from the racemate on ChiralPak AD; test not named

| Molecule | relative activity of resolved enantiomers |
| --- | --- |
| CC(C)(O)c1ccc2c(c1)C(=CCCN1CCC(O)(c3ccc(Cl)cc3)C(C)(CO)C1)c1cccnc1CO2 (single isomer, unassigned) [Example 483-1, 4-(4-Chloro-phenyl)-3-hydroxymethyl-1-{3-[7-(hydroxyl-1-methyl-ethyl)-11H-10-oxa-1-aza-dibenzo[a,d]cyclohepten-5-ylidene]-propyl}-3-methyl-piperidine-4-ol] | more active enantiomer |
| CC(C)(O)c1ccc2c(c1)C(=CCCN1CCC(O)(c3ccc(Cl)cc3)C(C)(CO)C1)c1cccnc1CO2 (single isomer, unassigned) [Example 483-2, 4-(4-Chloro-phenyl)-3-hydroxymethyl-1-{3-[7-(hydroxyl-1-methyl-ethyl)-11H-10-oxa-1-aza-dibenzo[a,d]cyclohepten-5-ylidene]-propyl}-3-methyl-piperidine-4-ol] | less active enantiomer |

Same assay, conditions: inhibitor concentration required for 50% inhibition of specific binding; 125I-RANTES or 125I-MIP-1α as ligand, THP-1 cell membranes; read-out: IC50

| Molecule | IC50 |
| --- | --- |
| 4-(4-Chlorophenyl)-1-[3-(5,11-dihydro-7-isopropoxy[1]benzoxepino[2,3-b]pyridin-5-ylidene)propyl]piperidin-4-ol [Example 47] | < 1 µM |
| CC(C)(O)c1ccc2c(c1)C(=CCCN1CC[C@@H](N3CC(=O)Nc4cc(Cl)ccc4C3)C1)c1cccnc1CO2 [Example 534, (R)-8-Chloro-4-(1-{3-[7-(-hydroxy-1-methyl-ethyl)-11H-10-oxa-1-aza-dibenzo[a,d]cyclohepten-5-ylidene]-propyl}-pyrrolidine-3-yl)-1,3,4,5-tetrahydro-benzo[e][1,4]diazepin-2-one] | < 1 µM |
| COC(=O)CN(Cc1ccc(Cl)cc1)C1CCN(CCC=C2c3cc(C(C)(C)O)ccc3OCc3ncccc32)CC1 [Example 500, [(4-Chloro-benzyl)-(1-{3-[7-(1-hydroxy-1-methyl-ethyl)-11H-10-oxa-1-aza-dibenzo[a,d]cyclohepten-5-ylidene]-propyl}-piperidin-4-yl)-amino]-acetic acid methyl ester] | < 10 µM |
| 4-(4-Chlorophenyl)-1-[3-(7-carboxymethyl-5,11-dihydro[1]benzoxepino[2,3-b]pyridin-5-ylidene)propyl]piperidin-4-ol [Example 120] | < 1 µM |
| 4-(4-Chlorophenyl)-1-[3-(5,11-dihydro-7-ethoxy [1]benzoxepino[2,3-b]pyridin-5-ylidene)propyl]piperidin-4-ol [Example 46] | < 1 µM |
| CC(C)(C)CC(C)(C)NC(=O)N(Cc1ccc(Cl)cc1)C1CCN(CCC=C2c3cc(C(C)(C)O)ccc3OCc3ncccc32)C1 (stereo not shown) [Example 570, 1-(4-Chloro-benzyl)-1-(1-{3-[7-(1-hydroxy-1-methyl-ethyl)-11H-10-oxa-1-aza-dibenzo[a,d]cyclohepten-5-ylidene]-propyl}-pyrrolidin-3-yl)-3-(1,1,3,3-tetramethyl-butyl)-urea] | < 10 µM |
| 1-[3-(7-Carboxymethyloxy-5,11-dihydro[1]benzoxepino[2,3-b]pyridin-5-ylidene)propyl]-4-(4-chlorophenyl)piperidin-4-ol [Example 133] | < 1 µM |
| 4-(5-Chloropyridin-2-yl)-1-[3-(5,11-dihydro-7-methoxy[1]benzoxepino[2,3-b]pyridin-5-ylidene)propyl]piperidin-4-ol [Example 83] | < 1000 µM |
| CC(C)(O)c1ccc2c(c1)C(=CCCN1CCC(O)(c3ccc(Cl)cc3)C(C)(CO)C1)c1cccnc1CO2 (single isomer, unassigned) [Example 483-1, 4-(4-Chloro-phenyl)-3-hydroxymethyl-1-{3-[7-(hydroxyl-1-methyl-ethyl)-11H-10-oxa-1-aza-dibenzo[a,d]cyclohepten-5-ylidene]-propyl}-3-methyl-piperidine-4-ol] | < 1 µM |
| 1-Cyclohexyl-4-[3-(5,11-dihydro-7-methoxy[1]benzoxepino[2,3-b]pyridin-5-ylidene)propyl]piperazine [Example 73] | < 10 µM |
| CC(C)(O)c1ccc2c(c1)C(=CCCN1CCC(NC(=O)Cc3ccc(Cl)cc3)CC1)c1cccnc1CO2 [Example 542, 2-(4-Chloro-phenyl)-N-(1-{3-[7-(1-hydroxy-1-methyl-ethyl)-11H-10-oxa-1-azadibenzo[a,d]cyclohepten-5-ylidene]-propyl}-piperidin-4-yl)-acetamide] | < 10 µM |
| CC1(C)CN(CCC=C2c3cc(OCC(=O)O)ccc3OCc3ncccc32)CCC1(O)c1ccc(Cl)cc1 (stereo not shown) [Example 515, (5-{3-[4-(4-Chloro-phenyl)-4-hydroxy-3,3-dimethyl-piperidin-1-yl]-propylidene}-5,11-dihydro-10-oxa-1-aza-dibenzo[a,d]cyclohepten-7-yloxy)-acetic acid] | < 1 µM |
| CC(C)(O)c1ccc2c(c1)C(=CCCN1CCC(O)(c3ccc(Cl)cc3)C(C)(CO)C1)c1cccnc1CO2 (single isomer, unassigned) [Example 483-2, 4-(4-Chloro-phenyl)-3-hydroxymethyl-1-{3-[7-(hydroxyl-1-methyl-ethyl)-11H-10-oxa-1-aza-dibenzo[a,d]cyclohepten-5-ylidene]-propyl}-3-methyl-piperidine-4-ol] | < 10 µM |
| COc1ccc2c(c1)C(=CCCN1CCOC(c3ccc(Cl)cc3)OCC1)c1cccnc1CO2 [Example 249, 5-(4-Chlorophenyl)-1-[3-(5,11-dihydro-7-methoxy[1]benzoxepino[2,3-b]pyridin-5-ylidene)propyl]-4,6-dioxazacane] | < 1 µM |
| CC1(C)CN(CCC=C2c3cc(CC(O)CO)ccc3OCc3ncccc32)CCC1(O)c1ccc(Cl)cc1 (stereo not shown) [Example 518, 3-(5-{3-[4-(4-Chloro-phenyl)-4-hydroxy-3,3-dimethyl-piperidin-1-yl]-propylidene}-5,11-dihydro-10-oxa-1-aza-dibenzo[a, d]cyclohepten-7-yl)propane-1,2-diol] | < 1 µM |
| 1-(2-Chlorophenylsulfonyl)-4-[3-(5,11-Dihydro-7-methoxy[1]benzoxepino[2,3-b]pyridin-5-ylidene)propyl]piperazine [Example 190] | > 10 µM |
| CC(C)(O)c1ccc2c(c1)C(=CCCN1CCC3(CC1)OC(=O)Nc1ccc(Cl)cc13)c1cccnc1CO2 [Example 520] | < 1 µM |
| 1-[3-(8-Carboxy-5,11-dihydro[1]benzoxepino[2,3-b]pyridin-5-ylidene)propyl]-4-(4-chlorophenyl)piperidine [Example 161] | < 10 µM |
| CC(C)(O)c1ccc2c(c1)C(=CCCN1CCN(c3ccc(Cl)cc3)C(C#N)C1)c1cccnc1CO2 (stereo not shown) [Example 545, 1-(4-Chloro-phenyl)-4-{3-[7-(1-hydroxy-1-methyl-ethyl)-11H-10-oxa-1-aza-dibenzo[a,d]cyclohepten-5-ylidene]-propyl}-piperazine-2-carbonitrile] | < 10 µM |
| CCOCCOc1ccc2c(c1)C(=CCCN1CCC(O)(c3ccc(Cl)cc3)CC1)c1cccnc1CO2 [Example 203] | < 1 µM |
| CCCCOC(=O)c1ccc2c(c1)C(=CCCN1CCC(O)(c3ccc(Cl)cc3)CC1)c1ccccc1CO2 [Example 23, 1-[3-(2-Butoxycarbonyl-6,11-dihydrodibenz[b,e]oxepin-11-ylidene)propyl]-4-(4-chlorophenyl)piperidin-4-ol] | < 1 µM |
| COc1ccc2c(c1)C(=CCCN1CCC(O)(c3ccc(C)cc3)CC1)c1cccnc1CO2 [Example 78, 1-[3-(5,11-Dihydro-7-methoxy[1]benzoxepino[2,3-b]pyridin-5-ylidene)propyl]-4-(p-toly)piperidin-4-ol] | < 1 µM |
| CC(C)(Oc1ccc2c(c1)C(=CCCN1CCC(O)(c3ccc(Cl)cc3)CC1)c1cccnc1CO2)C(N)=O [Example 211, 1-[3-(7-(1-Carbamoyl-1-methyl)ethyloxy-5,11-dihydro [1]benzoxepino[2,3-b]pyridin-5-ylidene)propyl]-4-(4-chlorophenyl)piperidin-4-ol] | < 1 µM |
| 4-(7-Chloroindol-3-yl)-1-[3-(5,11-dihydro-7-methoxy[1]benzoxepino[2,3-b]pyridin-5-ylidene)propyl]piperidine [Example 186] | < 1 µM |
| OC1(c2ccc(Cl)cc2)CCN(CCC=C2c3ccccc3COc3cc(Br)ccc32)CC1 [Example 35, 1-[3-(3-Bromo-6,11-dihydrodibenz [b,e]oxepin-11-ylidene)propyl]-4-(4-chlorophenyl)piperidin-4-ol] | < 1 µM |
